Test results reported in the CheMixHub drug solubility set.

Assay: xn = mol fraction of the nth substance listed, in the solute-free solvent

Nc1nccnc1Cl + CN(C)C=O + O
solubility (g/100 g solution)
Details | 278.15 K | 283.15 K | 288.15 K | 293.15 K | 298.15 K | 303.15 K | 308.15 K | 313.15 K | 318.15 K | 323.15 K
x2 = 0.02666 | 0.123 | 0.162 | 0.208 | 0.257 | 0.308 | 0.359 | 0.41 | 0.469 | 0.522 | 0.579
x2 = 0.05806 | 0.379 | 0.491 | 0.623 | 0.761 | 0.903 | 1.04 | 1.18 | 1.34 | 1.47 | 1.62
x2 = 0.09556 | 0.721 | 0.929 | 1.17 | 1.43 | 1.69 | 1.95 | 2.2 | 2.48 | 2.72 | 2.98
x2 = 0.1412 | 1.01 | 1.3 | 1.64 | 2.01 | 2.38 | 2.75 | 3.11 | 3.5 | 3.86 | 4.23
x2 = 0.1978 | 1.14 | 1.5 | 1.9 | 2.35 | 2.8 | 3.27 | 3.75 | 4.24 | 4.69 | 5.16
x2 = 0.27 | 1.26 | 1.69 | 2.14 | 2.67 | 3.17 | 3.72 | 4.29 | 4.84 | 5.41 | 6.03
x2 = 0.3652 | 1.38 | 1.82 | 2.33 | 2.93 | 3.56 | 4.17 | 4.81 | 5.48 | 6.15 | 6.86
x2 = 0.4965 | 1.5 | 2.02 | 2.55 | 3.24 | 3.93 | 4.64 | 5.37 | 6.21 | 7 | 7.83
x2 = 0.6893 | 1.59 | 2.12 | 2.72 | 3.45 | 4.22 | 5.01 | 5.87 | 6.75 | 7.69 | 8.67

Nc1nccnc1Cl + OCCO + O
solubility (g/100 g solution)
Details | 278.15 K | 283.15 K | 288.15 K | 293.15 K | 298.15 K | 303.15 K | 308.15 K | 313.15 K | 318.15 K | 323.15 K
x2 = 0.03125 | 0.0244 | 0.0327 | 0.0431 | 0.0542 | 0.0663 | 0.0791 | 0.0925 | 0.108 | 0.123 | 0.139
x2 = 0.06767 | 0.0337 | 0.045 | 0.0589 | 0.0739 | 0.0903 | 0.108 | 0.126 | 0.147 | 0.167 | 0.189
x2 = 0.1107 | 0.0487 | 0.0645 | 0.0838 | 0.105 | 0.128 | 0.153 | 0.178 | 0.208 | 0.236 | 0.267
x2 = 0.1622 | 0.0695 | 0.0914 | 0.118 | 0.147 | 0.179 | 0.213 | 0.25 | 0.29 | 0.33 | 0.372
x2 = 0.225 | 0.09 | 0.119 | 0.153 | 0.192 | 0.235 | 0.28 | 0.328 | 0.382 | 0.435 | 0.491
x2 = 0.3034 | 0.113 | 0.148 | 0.19 | 0.239 | 0.291 | 0.347 | 0.408 | 0.474 | 0.541 | 0.61
x2 = 0.4038 | 0.13 | 0.17 | 0.218 | 0.273 | 0.334 | 0.399 | 0.469 | 0.546 | 0.625 | 0.705
x2 = 0.5373 | 0.139 | 0.182 | 0.232 | 0.292 | 0.357 | 0.427 | 0.505 | 0.589 | 0.676 | 0.764
x2 = 0.7232 | 0.142 | 0.182 | 0.235 | 0.297 | 0.364 | 0.438 | 0.519 | 0.607 | 0.699 | 0.792

S=c1[nH]ncs1 + CCCO + O
solubility (g/100 g solution)
Details | 278.15 K | 283.15 K | 288.15 K | 293.15 K | 298.15 K | 303.15 K | 308.15 K | 313.15 K | 318.15 K | 323.15 K
x2 = 0.1 | 1.64 | 2.13 | 2.71 | 3.49 | 4.42 | 5.59 | 6.98 | 8.6 | 10.7 | 13.4
x2 = 0.2 | 3.48 | 4.3 | 5.41 | 6.75 | 8.22 | 10 | 12.1 | 14.6 | 17.5 | 20.8
x2 = 0.3 | 5.01 | 6.25 | 7.53 | 9.11 | 10.8 | 12.9 | 15.4 | 18.1 | 21.5 | 25.1
x2 = 0.4 | 6.2 | 7.46 | 8.98 | 10.7 | 12.7 | 14.7 | 17.2 | 20.1 | 23.3 | 26.9
x2 = 0.5 | 7.02 | 8.48 | 9.9 | 11.7 | 13.5 | 15.7 | 18.1 | 20.8 | 23.9 | 27.3
x2 = 0.6 | 7.59 | 8.9 | 10.3 | 11.9 | 13.8 | 15.9 | 18.2 | 20.4 | 23.3 | 26.4
x2 = 0.7 | 7.61 | 8.94 | 10.3 | 11.8 | 13.6 | 15.4 | 17.3 | 19.7 | 22.2 | 25.2
x2 = 0.8 | 7.47 | 8.6 | 9.84 | 11.4 | 13.1 | 14.6 | 16.8 | 18.9 | 21.2 | 24.1
x2 = 0.9 | 6.73 | 8.12 | 8.99 | 10.4 | 11.8 | 13.5 | 15.3 | 17.3 | 19.6 | 22.2

CCCCCOC(=O)Nc1nc(=O)n(C2OC(C)C(O)C2O)cc1F (stereo not given) + CCOC(C)=O + CCCCCCC
solubility (g/100 g solution)
Details | 278.15 K | 283.15 K | 288.15 K | 293.15 K | 298.15 K | 303.15 K | 308.15 K | 313.15 K | 318.15 K | 323.15 K
x2 = 0.3 | 0.0197 | 0.0268 | 0.0361 | 0.0476 | 0.0629 | 0.0818 | 0.106 | 0.136 | 0.174 | 0.22
x2 = 0.4 | 0.0475 | 0.0561 | 0.0765 | 0.0904 | 0.106 | 0.132 | 0.154 | 0.184 | 0.216 | 0.267
x2 = 0.5 | 0.0862 | 0.111 | 0.141 | 0.179 | 0.221 | 0.274 | 0.337 | 0.411 | 0.502 | 0.604
x2 = 0.5998 | 0.131 | 0.166 | 0.212 | 0.286 | 0.332 | 0.407 | 0.518 | 0.643 | 0.749 | 0.931
x2 = 0.7 | 0.266 | 0.34 | 0.455 | 0.554 | 0.682 | 0.849 | 1.07 | 1.31 | 1.63 | 1.98
x2 = 0.8 | 0.485 | 0.609 | 0.801 | 0.99 | 1.27 | 1.6 | 2.05 | 2.49 | 3.12 | 3.74
x2 = 0.9001 | 0.622 | 0.794 | 1.08 | 1.44 | 1.81 | 2.46 | 3.02 | 4.02 | 4.87 | 6.07

CC(=O)N1CCN(c2ccc(OCC3COC(Cn4ccnc4)(c4ccc(Cl)cc4Cl)O3)cc2)CC1 (stereo not given) + C1COCCO1 + O
solubility (g/100 g solution)
Details | x2 = 0.02222 | x2 = 0.04865 | x2 = 0.0806 | x2 = 0.12 | x2 = 0.1698 | x2 = 0.2348 | x2 = 0.3231 | x2 = 0.45 | x2 = 0.648
293.15 K | 0.00759 | 0.0327 | 0.155 | 0.537 | 2.07 | 6.72 | 16.6 | 22.9 | 18.7
298.15 K | 0.00818 | 0.0386 | 0.171 | 0.692 | 2.58 | 8.67 | 18.8 | 25.4 | 20.6
303.15 K | 0.00845 | 0.0485 | 0.197 | 0.87 | 3.25 | 10.9 | 21.1 | 27.8 | 22.6
308.15 K | 0.00894 | 0.0594 | 0.216 | 1.04 | 4.24 | 13.4 | 24.4 | 29.9 | 24.3
313.15 K | 0.00948 | 0.07 | 0.25 | 1.3 | 5.11 | 16 | 27.2 | 32.5 | 26.7
